The values that follow come from patent US6017914A, “Benzo[b]thiophene compounds, intermediates, formulations, and methods” (Eli Lilly and Company, priority 1997, dated 2000).

One assay deals with uterus. Nature of the assay: Post-menopausal ovariectomized rat model: wet uterine weight. The format is in vivo, female Sprague Dawley rats. As to conditions: daily for 4 days.
In a further assay the test system is Serum Cholesterol. The assay can be described thus: Serum cholesterol in ovariectomized rats (Cholesterol Analysis). In kind it is in vivo, female Sprague Dawley rats. As to conditions: daily for 4 days.

For the molecule `Cl.O=C(O)c1ccc2c(C(=O)c3ccc(OCCN4CCCCC4)cc3)c(-c3ccc(O)cc3)sc2c1` [Example 4, [2-(4-Hydroxyphenyl)-6-carboxybenzo[b]thien-3-yl][4-[2-(1-piperidinyl)ethoxy]phenyl]methanone Hydrochloride], the “Uterine Wt. (% Inc.) versus the ovariectomized controls” value in the assay with uterus (0.1 mg/kg PO) came out at 18.8%; in the assay with uterus (1 mg/kg PO), 27.2%; in the assay with uterus (10 mg/kg PO), 29.6%. Besides, in the assay with Serum Cholesterol (0.1 mg/kg PO), the “Serum Cholesterol (% Dec.) versus ovariectomized controls” value was determined as 0.6%.
Regarding `CC(C)COC(=O)c1ccc2c(C(=O)c3ccc(OCCN4CCCCC4)cc3)c(-c3ccc(O)cc3)sc2c1` [Example 3], the “Uterine Wt. (% Inc.) versus the ovariectomized controls” value is reported as 11.8% with uterus (0.1 mg/kg PO), 21.7% with uterus (1 mg/kg PO) and 47.1% in the assay with uterus (10 mg/kg PO). Also, the “Serum Cholesterol (% Dec.) versus ovariectomized controls” value in the assay on Serum Cholesterol (0.1 mg/kg PO) is reported as -2.4%; with Serum Cholesterol (1 mg/kg PO), 8.7%; in the assay with Serum Cholesterol (10 mg/kg PO), 58.0%.
In the case of `CCCCOC(=O)c1ccc2c(C(=O)c3ccc(OCCN4CCCCC4)cc3)c(-c3ccc(O)cc3)sc2c1` [Example 2, [2-(4-Hydroxyphenyl)-6-n-butoxycarbonylbenzo[b]thien-3-yl][4-[2-(1-piperidinyl)ethoxy]phenyl]methanone], the “Uterine Wt. (% Inc.) versus the ovariectomized controls” value with uterus (0.1 mg/kg PO) was determined as 19.4%; in the assay with uterus (1 mg/kg PO), 16.8%; in the assay with uterus (10 mg/kg PO) it was 52.5%. Moreover, in the assay on Serum Cholesterol (0.1 mg/kg PO), the “Serum Cholesterol (% Dec.) versus ovariectomized controls” value is -1.2%.
On to `COC(=O)c1ccc2c(C(=O)c3ccc(OCCN4CCCCC4)cc3)c(-c3ccc(O)cc3)sc2c1.Cl` [Example 1, [2-(4-Hydroxyphenyl)-6-methoxycarbonylbenzo[b]thien-3-yl][4-[2-(1-piperidinyl)ethoxy]phenyl]methanone Hydrochloride], for which the “Uterine Wt. (% Inc.) versus the ovariectomized controls” value with uterus (0.1 mg/kg PO) is 46.9%; in the assay with uterus (1 mg/kg PO) it was 19.1%; in the assay on uterus (10 mg/kg PO), 45.2%. In the assay with Serum Cholesterol (0.1 mg/kg PO), the “Serum Cholesterol (% Dec.) versus ovariectomized controls” value was -8.6%.
Take `CC(=O)c1ccc2c(C(=O)c3ccc(OCCN4CCCCC4)cc3)c(-c3ccc(O)cc3)sc2c1` [Example 5, [2-(4-Hydroxyphenyl)-6-acetylbenzo[b]thien-3-yl][4-[2-(1-piperidinyl)ethoxy]phenyl]methanone]: the entries for the “Uterine Wt. (% Inc.) versus the ovariectomized controls” value in the assay on uterus (0.1 mg/kg PO), in the assay with uterus (1 mg/kg PO) and with uterus (10 mg/kg PO) were 18.8%, 51.8% and 69.4%, respectively. In addition, in the assay on Serum Cholesterol (0.1 mg/kg PO), the “Serum Cholesterol (% Dec.) versus ovariectomized controls” value is recorded as -6.3%.
Regarding `C#Cc1ccc2c(C(=O)c3ccc(OCCN4CCCCC4)cc3)c(-c3ccc(O)cc3)sc2c1` [Example 6, [2-(4-Hydroxyphenyl)-6-ethynylbenzo[b]thien-3-yl][4-[2-(1-piperidinyl)ethoxy]phenyl]methanone], the “Uterine Wt. (% Inc.) versus the ovariectomized controls” value was found to be 14.3% in the assay with uterus (0.1 mg/kg PO), 27.8% in the assay on uterus (1 mg/kg PO) and 22.5% with uterus (10 mg/kg PO).
